# Measurements reported in patent publication US20070225248A1 (Clavis Pharma AS, priority 2006, published 2007).
# Read-outs that look alike come from different tables or passages of the source. Marks after values point to notes of the source that are not given here.
# Legend:
# [1] = Maximum tolerated dose, administration every third day repeated five times; type: in vivo, mice; conditions: administered every third day
# Description: This is shown below by the experiments presented in table 1 and table 2 using different mice strains and also different human colon xenografts.
# [2] = test system: Colon 6044 (human colon carcinoma)
# [3] = test system: Colon 5776 (human colon carcinoma); test: Antitumour activity in human colon cancer xenograft Co5776, IP treatment; conditions: for Toxic deaths (d): 8 NCR:nu/nu female mice; for Optimum T/C [%] (volume of treated tumour versus control tumour): significant vs saline; for antitumour activity in terms of reductions in tumor growth (in words): FIG. 1
# Description: (§1) Human colon cancer Co5776 was inserted to Ncr:nu/nu female mice subcutaneously, and treatment started when tumors reached a mean volume of 100 mm^3.
# [4] = test system: Colon 6044 (human colon carcinoma); test: Antitumour activity in Co6044 after oral administration, different dosing schedules (Table 4); type: in vivo, mice; conditions: for Toxic deaths (d): 7 mice; for Optimum T/C [%] (on day): significant vs saline
# Description: Antitumour Activity of Elaidic Acid (5′)-Gemcitabine Ester in Co6044 After Oral Administration
# [5] = test system: Co6044 (human colon carcinoma); test: Antitumour activity in human colon cancer xenograft Co6044, IP treatment; conditions: for Toxic deaths (d): 8 mice; for Optimum T/C [%]: significant vs saline
# Description: (§2) Treatment started when the tumors reached a mean volume of 100 mm^3.
# [6] = test system: Colon 5776 (human colon carcinoma); conditions: mouse, in vivo, ip, 120 mg/kg
# Description: as §1
# [7] = test system: Co6044 (human colon carcinoma); conditions: mouse, in vivo, ip, 120 mg/kg
# Description: as §2
# [8] = IP 40 mg/kg, D8, 11, 14, 17, 20
# [9] = Oral 10 mg/kg, D 7, 10, 13, 16, 19
# [10] = Oral 15 mg/kg, D 7, 10, 13, 16, 19
# [11] = IP 120 mg/kg, D8, 11, 14, 17, 20
structure (smiles),measurement,setting,value
"CCCCCCCC/C=C/CCCCCCCC(=O)OC[C@H]1O[C@@H](n2ccc(N)nc2=O)C(F)(F)[C@@H]1O [Elaidic acid (5′)-gemcitabine ester, elaidic acid (5′)-gemcitabine ester]",maximum tolerated dose,[1],40 mg/kg per injection
same,BWC [%] D 13,"[2]; Oral 40 mg/kg, Q3 × 5, D 13",−7%
same,Toxic deaths (d),"[2]; Oral 40 mg/kg, Q3 × 5, deaths on day 15",2/8 (15)
same,Optimum T/C [%] (on day),"[2]; Oral 40 mg/kg, Q3 × 5, optimum on day 27, significant vs saline",5(27)* %
same,Optimum T/C [%] (on day),"[2]; Oral 60 mg/kg, Q3 × 5",Toxic
same,BWC [%] D 13,"[2]; Oral 60 mg/kg, Q3 × 5, D 13",−9%
same,Toxic deaths (d),"[2]; Oral 60 mg/kg, Q3 × 5, deaths days 12-24",6/8(12-24)
same,Optimum T/C [%] (on day),"[2]; Oral 80 mg/kg, Q3 × 5",Toxic
same,BWC [%] D 13,"[2]; Oral 80 mg/kg, Q3 × 5, D 13",−6%
same,Toxic deaths (d),"[2]; Oral 80 mg/kg, Q3 × 5, deaths days 16-22",6/8(16-22)
same,activity and tolerability when given orally (in words),"[2]; oral, 40 mg/kg",highly active and tolerable
same,BWC [%] (body weight change),[3]; [8],−4%
same,Toxic deaths (d),[3]; [8],0
same,Optimum T/C [%] (volume of treated tumour versus control tumour),[3]; [8],17* %
same,antitumour activity in terms of reductions in tumor growth (in words),[3]; IP 40 mg/kg,high antitumour activity
same,BWC [%],"[4]; Oral 5 mg/kg, D 7-11",−3%
same,Toxic deaths (d),"[4]; Oral 5 mg/kg, D 7-11",0
same,Optimum T/C [%] (on day),"[4]; Oral 5 mg/kg, D 7-11, optimum on day 28",10(28)* %
same,BWC [%],[4]; [9],−1%
same,Toxic deaths (d),[4]; [9],0
same,Optimum T/C [%] (on day),"[4]; Oral 10 mg/kg, D 7, 10, 13, 16, 19, optimum on day 24",35(24)* %
same,BWC [%],"[4]; Oral 10 mg/kg, D 7-11",−5%
same,Toxic deaths (d),"[4]; Oral 10 mg/kg, D 7-11",0
same,Optimum T/C [%] (on day),"[4]; Oral 10 mg/kg, D 7-11, optimum on day 17",8(17)* %
same,BWC [%],[4]; [10],−1%
same,Toxic deaths (d),[4]; [10],0
same,Optimum T/C [%] (on day),"[4]; Oral 15 mg/kg, D 7, 10, 13, 16, 19, optimum on day 24",27(24)* %
same,BWC [%],"[4]; Oral 20 mg/kg, D 7, 10, 13, 16, 19",−3%
same,Toxic deaths (d),"[4]; Oral 20 mg/kg, D 7, 10, 13, 16, 19, death on day 17",1(17)
same,Optimum T/C [%] (on day),"[4]; Oral 20 mg/kg, D 7, 10, 13, 16, 19, optimum on day 24",16(24)* %
same,BWC [%],"[4]; Oral 50 mg/kg, D 7, 14",0%
same,Toxic deaths (d),"[4]; Oral 50 mg/kg, D 7, 14",0
same,Optimum T/C [%] (on day),"[4]; Oral 50 mg/kg, D 7, 14, optimum on day 17",22(17)* %
same,BWC [%],"[4]; Oral 100 mg/kg, D 7, 14",−4%
same,Toxic deaths (d),"[4]; Oral 100 mg/kg, D 7, 14, death on day 20",1(20)
same,Optimum T/C [%] (on day),"[4]; Oral 100 mg/kg, D 7, 14, optimum on day 24",4(24)* %
same,activity after oral administration (in words),"[4]; oral, all tested schedules",High dose dependent activity
same,significance of antitumour activity (in words),"[4]; oral, all the tested schedules",Significant antitumour activity
same,antitumor effect (in words),[5]; IP 40 mg/kg every third day for five times,Excellent antitumor effect
same,Toxic deaths (d),[5]; [8],0
same,BWC D 8-15 (body weight change),"[5]; IP 40 mg/kg, D8, 11, 14, 17, 20, D 8-15",−1
same,Optimum T/C [%],[5]; [8],19* %
"Nc1ccn([C@@H]2O[C@H](CO)[C@@H](O)C2(F)F)c(=O)n1 [Gemcitabine, 2′,2′-difluorodeoxycytidine, reference compound]",maximum tolerated dose,[1],approximately 120 mg/kg per injection
same,BWC [%] D 13,"[2]; mouse, in vivo, po, 120 mg/kg",−16%
same,BWC [%] D 13,"[2]; mouse, in vivo, po, 180 mg/kg",−22%
same,BWC [%] D 13,"[2]; mouse, in vivo, po, 240 mg/kg",−21%
same,Toxic deaths (d),"[3]; IP 120 mg/kg, D8, 11, 14, 17, 20, death on day 18",1(18)
same,Optimum T/C [%] (volume of treated tumour versus control tumour),[3]; [11],17* %
same,antitumour activity in terms of reductions in tumor growth (in words),[3]; IP 120 mg/kg,high antitumour activity
same,antitumor effect (in words),[5]; IP 120 mg/kg every third day for five times,Excellent antitumor effect
same,Toxic deaths (d),[5]; [11],0
same,Optimum T/C [%],[5]; [11],15* %
same,BWC [%] (body weight change),[6],−5%
same,BWC D 8-15 (body weight change),[7],−3
